Values quoted from earlier work as cited in US20120195873A1, “METHODS OF A[…] LOSS OF […]” (NESTEC S.A., priority 2009, published 2012).

Assays:
skeletal muscle [1] = details: animal data, exogenous 25-OH
[2] = 400 mg twice daily; heavy exercise, calcium loss through sweat
skeletal muscle [3] = details: vitamin D deficient rats
type II muscle fibers = details: vitamin D deficient patients, pre- vs post-supplementation
[4] = tested on: lower extremity muscle performance; details: elderly; amounts bringing mean serum 25-OH Vitamin D to 66-84 nmol/L

Compound: 25-Hydroxy Vitamin D [25-OH]
- skeletal muscle protein synthesis (skeletal muscle [1]): increases skeletal muscle protein synthesis

Compound: O=C([O-])[O-].[Ca+2] [calcium carbonate]
- offset of exercise-induced net calcium loss [2]: sufficient to offset this loss

Compound: vitamin D
- muscle mass (skeletal muscle [3]): increased muscle mass
- rate of myofibrillar protein degradation (skeletal muscle [3]): decreased rate of myofibrillar protein degradation
- weight gain (skeletal muscle [3]): weight gain
- atrophy of type II muscle fibers in biopsies (type II muscle fibers): significant improvements were observed post-supplementation
- lower extremity muscle performance [4]: improves lower extremity muscle performance
